Here are results for seven compounds from ChEMBL document CHEMBL1201862, “PubChem BioAssay data set” (2004).

Among the test systems are BT-549; CAKI-1; CCRF-CEM; EKVX; HCC 2998; HCT-116; IGROV-1; M14; Malme-3M; NCI-H522; OVCAR-3; PC-3; SF-295; SF-539; SK-MEL-5; SK-OV-3; SNB-19; SW-620; UACC-257; UO-31.
What all share (assay): NCI tumour cell line growth inhibition, 48 h

Structures are written as SMILES.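 Step 1: Grow cells in 96-well plates. Step 2: Expose to compound for 48 hours at 5 concentrations. Step 3: Interpolate endpoints linearly; if unreached, use highest concentration. The concentration for 50% growth inhibition is given as GI50.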 Active and inactive are the calls of the source. Cut-off read from the data, not from the text of the source: active = GI50 up to about 1.1 µM and inactive = higher.

In the case of `CN(C)CCCN1c2ccc([N+](=O)[O-])cc2CCc2cc([N+](=O)[O-])ccc21`, the GI50 in the assay with BT-549 was 15.4 µM (inactive); in the assay with CAKI-1 it was 14.5 µM (inactive); in the assay with CCRF-CEM, 11.4 µM (inactive); in the assay with EKVX it was 15.2 µM (inactive); in the assay on HCC 2998 it was 11.9 µM (inactive); in the assay with HCT-116 it was 13.7 µM (inactive). The GI50 was 14.6 µM (inactive) in the assay on IGROV-1; 14.5 µM (inactive) in the assay with M14; 17.8 µM (inactive) with Malme-3M; 17.4 µM (inactive) in the assay on NCI-H522; 16 µM (inactive) with OVCAR-3; 13.6 µM (inactive) in the assay with PC-3. Further, the GI50 in the assay on SF-295 is 15.6 µM (inactive); in the assay on SF-539, 18.3 µM (inactive); with SK-MEL-5 it was 10.6 µM (inactive); with SK-OV-3 it was 14.9 µM (inactive); in the assay with SNB-19, 15.4 µM (inactive); in the assay on SW-620, 16 µM (inactive). In addition, the GI50 in the assay on UACC-257 is 13.9 µM (inactive); in the assay with UO-31 it was 12 µM (inactive).

On to `COC(=O)C(COC(C)=O)NC(=O)/C=C/c1ccc(O)c(OC(C)=O)c1` (configuration not stated), for which the GI50 in the assay with BT-549 is > 100 µM (inactive); with CAKI-1, 66.2 µM (inactive); in the assay on CCRF-CEM it was 17.4 µM (inactive); in the assay with EKVX, > 100 µM (inactive); with HCC 2998, 63.4 µM (inactive); with HCT-116, 39.1 µM (inactive). Moreover, the GI50 with IGROV-1 was 31.6 µM (inactive); with M14 it was > 100 µM (inactive); with Malme-3M, > 100 µM (inactive); in the assay with NCI-H522, 11.4 µM (inactive); with OVCAR-3, 50.6 µM (inactive); with PC-3, 99.1 µM (inactive). The GI50 in the assay on SF-295 is > 100 µM (inactive); in the assay on SF-539, 15.1 µM (inactive); in the assay on SK-MEL-5, > 100 µM (inactive); in the assay with SK-OV-3, > 100 µM (inactive); in the assay with SNB-19, > 100 µM (inactive); in the assay with SW-620, 31 µM (inactive). The values for the GI50 in the assay with UACC-257 and in the assay on UO-31 were > 100 µM (inactive) and 49.2 µM (inactive), respectively.

For `O=C(/C=C1\C[C@H]2C=Nc3ccccc3C(=O)N2C1)NCCCCCNC(=O)/C=C1\C[C@H]2C=Nc3ccccc3C(=O)N2C1`, the GI50 in the assay with BT-549 is 12.6 µM (inactive); in the assay with CAKI-1 it was 2.6 µM (inactive); in the assay with CCRF-CEM, 1.05 µM (active); in the assay on EKVX it was 18 µM (inactive); in the assay with HCC 2998, 18.5 µM (inactive); in the assay on HCT-116 it was 6.14 µM (inactive). Moreover, the GI50 in the assay with IGROV-1 was 11 µM (inactive); in the assay with M14, 3.49 µM (inactive); in the assay with Malme-3M it was 2.52 µM (inactive); in the assay on NCI-H522 it was 0.726 µM (active); with OVCAR-3, 4.1 µM (inactive); in the assay on PC-3, 13.8 µM (inactive). The GI50 in the assay with SF-295 is 18.3 µM (inactive); in the assay with SF-539 it was 19.1 µM (inactive); with SK-MEL-5 it was 22.2 µM (inactive); in the assay on SK-OV-3 it was 16.2 µM (inactive); in the assay with SNB-19, 16.1 µM (inactive); with SW-620, 2.1 µM (inactive). In addition, the GI50 with UACC-257 was 4.36 µM (inactive); with UO-31, 1.94 µM (inactive).

Regarding `O=C(NCCCNCCN1C(=O)c2cccc3cc([N+](=O)[O-])cc(c23)C1=O)c1cc(-c2ccccc2)nc2ccccc12`, the GI50 with BT-549 was 6.15 µM (inactive); in the assay with CAKI-1, 6.07 µM (inactive); with CCRF-CEM it was 0.966 µM (active); with EKVX it was 7.52 µM (inactive); in the assay on HCC 2998, 1.49 µM (inactive); with HCT-116, 1.23 µM (inactive). Further, the GI50 is 2.54 µM (inactive) in the assay with IGROV-1; 1.72 µM (inactive) with M14; 1.81 µM (inactive) in the assay with Malme-3M; 1.62 µM (inactive) in the assay on NCI-H522; 5.87 µM (inactive) in the assay with OVCAR-3; 3.61 µM (inactive) with PC-3. The GI50 in the assay on SF-295 was 3.08 µM (inactive); with SF-539, 1.98 µM (inactive); in the assay on SK-MEL-5, 2.09 µM (inactive); in the assay on SK-OV-3, 8.91 µM (inactive); with SNB-19 it was 3.72 µM (inactive); in the assay with SW-620 it was 0.955 µM (active). Besides, the results for the GI50 in the assay on UACC-257 and with UO-31 were 2.21 µM (inactive) and 2.52 µM (inactive), respectively.

Turning to `Cc1ccc(F)cc1NC(=O)O/N=C(\Cl)C(C)C`, the GI50 in the assay on BT-549 is 2.18 µM (inactive); in the assay with CAKI-1 it was 1.72 µM (inactive); in the assay on CCRF-CEM, 1.9 µM (inactive); in the assay with EKVX, 7.19 µM (inactive); in the assay with HCC 2998, 16.2 µM (inactive); in the assay on HCT-116, 5.28 µM (inactive). Moreover, the GI50 was 17.2 µM (inactive) with IGROV-1; 5.22 µM (inactive) with M14; 2.7 µM (inactive) in the assay on Malme-3M; 0.791 µM (active) in the assay with NCI-H522; 6.47 µM (inactive) in the assay on OVCAR-3; 18 µM (inactive) with PC-3. The GI50 is 28.5 µM (inactive) with SF-295; 7.21 µM (inactive) with SF-539; 6.97 µM (inactive) in the assay on SK-MEL-5; 20.2 µM (inactive) in the assay on SK-OV-3; 35.5 µM (inactive) in the assay with SNB-19; 2.35 µM (inactive) in the assay with SW-620. Moreover, the GI50 was 19 µM (inactive) in the assay with UACC-257 and 7.98 µM (inactive) with UO-31.

As to `CN(CC(=O)Nc1ccccc1C(=O)O)c1ccccc1`, the GI50 in the assay on BT-549 is > 100 µM (inactive); in the assay with CAKI-1 it was > 100 µM (inactive); in the assay on CCRF-CEM, > 100 µM (inactive); in the assay on EKVX, > 100 µM (inactive); with HCC 2998, > 100 µM (inactive); in the assay with HCT-116, 84.3 µM (inactive). Moreover, the GI50 in the assay on IGROV-1, with M14, with Malme-3M, with NCI-H522, with OVCAR-3 and in the assay with PC-3 was > 100 µM (inactive) each time. Also, the GI50 in the assay on SF-295 was > 100 µM (inactive); in the assay with SF-539, > 100 µM (inactive); in the assay on SK-MEL-5 it was > 100 µM (inactive); in the assay with SNB-19 it was > 100 µM (inactive); with SW-620, 90.2 µM (inactive); in the assay on UACC-257, > 100 µM (inactive). Also, the GI50 in the assay with UO-31 is > 100 µM (inactive).

For the compound `C=CCC1(C(=O)OC)CCC/C(=N\O)C1` (configuration not stated), the GI50 in the assay with BT-549, in the assay with CAKI-1, with CCRF-CEM, in the assay on HCC 2998, with HCT-116 and in the assay with IGROV-1 was > 10 µM (inactive) throughout. Also, the GI50 with M14, in the assay with Malme-3M, with NCI-H522, in the assay with OVCAR-3, in the assay on PC-3 and in the assay with SF-295 was > 10 µM (inactive) each time. For the same compound, the GI50 in the assay on SF-539, with SK-MEL-5, with SK-OV-3, in the assay on SNB-19, with SW-620 and in the assay on UACC-257 was > 10 µM (inactive) in each case.
